According to patent publication US7407961B2, “Pyrazine derivatives and pharmaceutical use thereof” (Astellas Pharma Inc., priority 2003, dated 2008):
Counter-ions that a name gives are not always drawn.

Row | SMILES | melting point
1 | Cn1cc(-c2nc(C#N)c(N)nc2-c2ccccc2)ccc1=O (as salt: Na) [Example 11, 3-amino-6-(1-methyl-6-oxo-1,6-dihydro-3-pyridyl)-5-phenyl-2-pyrazinecarbonitrile] | > 250 °C
2 | NC(=O)c1nc(-c2ccc(=O)[nH]c2)c(-c2ccccc2)nc1N (hydrate or solvate) [Example 2, 3-amino-6-(6-oxo-1,6-dihydro-3-pyridyl)-5-phenyl-2-pyrazinecarboxamide] | 215 to 220 °C
3 | N#Cc1nc(-c2ccc(=O)[nH]c2)c(-c2ccccc2)nc1N (hydrate or solvate) [Example 10, 3-amino-6-(6-oxo-1,6-dihydro-3-pyridyl)-5-phenyl-2-pyrazinecarbonitrile] | 243 to 248 °C
4 | COc1ccc(-c2nc(C(N)=O)c(N)nc2-c2ccccc2)cn1 (hydrate or solvate) [Example 15, 3-amino-6-(6-methoxy-3-pyridyl)-5-phenyl-2-pyrazinecarboxamide] | 208 to 212 °C
5 | CC(C)n1cc(-c2nc(C(N)=O)c(N)nc2-c2ccccc2)ccc1=O (hydrate or solvate) [Example 16, 3-amino-6-(1-isopropyl-6-oxo-1,6-dihydro-3-pyridyl)-5-phenyl-2-pyrazinecarboxamide] | 245 °C
6 | CC(C)n1cc(-c2nc(C(N)=O)c(N)nc2-c2ccccc2F)ccc1=O (hydrate or solvate) [Example 17, 3-Amino-5-(2-fluorophenyl)-6-(1-isopropyl-6-oxo-1,6-dihydro-3-pyridyl)-2-pyrazinecarboxamide] | 251.7 °C
7 | CC(C)n1cc(-c2nc(C(N)=O)c(N)nc2-c2cccc(F)c2)ccc1=O (hydrate or solvate) [Example 18, 3-Amino-5-(3-fluorophenyl)-6-(1-isopropyl-6-oxo-1,6-dihydro-3-pyridyl)-2-pyrazinecarboxamide] | 258.8 °C
8 | CC(C)n1cc(-c2nc(C(N)=O)c(N)nc2-c2ccc(F)cc2)ccc1=O (hydrate or solvate) [Example 19, 3-Amino-5-(4-fluorophenyl)-6-(1-isopropyl-6-oxo-1,6-dihydro-3-pyridyl)-2-pyrazinecarboxamide] | 235.6 °C
9 | CC(C)n1cc(-c2nc(C(N)=O)c(N)nc2-c2cccc(Cl)c2)ccc1=O (hydrate or solvate) [Example 21, 3-Amino-5-(3-chlorophenyl)-6-(1-isopropyl-6-oxo-1,6-dihydro-3-pyridyl)-2-pyrazinecarboxamide] | 232.6 °C
10 | CC(C)n1cc(-c2nc(C(N)=O)c(N)nc2-c2ccc(Cl)cc2)ccc1=O (hydrate or solvate) [Example 22, 3-Amino-5-(4-chlorophenyl)-6-(1-isopropyl-6-oxo-1,6-dihydro-3-pyridyl)-2-pyrazinecarboxamide] | 246.2 °C
11 | COc1ccccc1-c1nc(N)c(C(N)=O)nc1-c1ccc(=O)n(C(C)C)c1 (hydrate or solvate) [Example 23, 3-Amino-6-(1-isopropyl-6-oxo-1,6-dihydro-3-pyridyl)-5-(2-methoxyphenyl)-2-pyrazinecarboxamide] | 263.1 °C
12 | COc1cccc(-c2nc(N)c(C(N)=O)nc2-c2ccc(=O)n(C(C)C)c2)c1 (hydrate or solvate) [Example 24, 3-Amino-6-(1-isopropyl-6-oxo-1,6-dihydro-3-pyridyl)-5-(3-methoxyphenyl)-2-pyrazinecarboxamide] | 192.3 °C
13 | COc1ccc(-c2nc(N)c(C(N)=O)nc2-c2ccc(=O)n(C(C)C)c2)cc1 (hydrate or solvate) [Example 25, 3-Amino-6-(1-isopropyl-6-oxo-1,6-dihydro-3-pyridyl)-5-(4-methoxyphenyl)-2-pyrazinecarboxamide] | 243.9 °C
14 | CC(C)n1cc(-c2nc(C(N)=O)c(N)nc2-c2ccccc2OC(F)(F)F)ccc1=O (hydrate or solvate) [Example 26, 3-Amino-6-(1-isopropyl-6-oxo-1,6-dihydro-3-pyridyl)-5-[2-(trifluoromethoxy)phenyl]-2-pyrazinecarboxamide] | 206.5 °C
15 | CC(C)n1cc(-c2nc(C(N)=O)c(N)nc2-c2cccc(OC(F)(F)F)c2)ccc1=O (hydrate or solvate) [Example 27, 3-Amino-6-(1-isopropyl-6-oxo-1,6-dihydro-3-pyridyl)-5-[3-(trifluoromethoxy)phenyl]-2-pyrazinecarboxamide] | 265.5 °C
16 | CC(C)n1cc(-c2nc(C(N)=O)c(N)nc2-c2ccc(OC(F)(F)F)cc2)ccc1=O (hydrate or solvate) [Example 28, 3-Amino-6-(1-isopropyl-6-oxo-1,6-dihydro-3-pyridyl)-5-[4-(trifluoromethoxy)phenyl]-2-pyrazinecarboxamide] | 264 °C

Second part, the compound after the results:

Row | melting point | SMILES
17 | 205.4 °C | CC(C)n1cc(-c2nc(C#N)c(N)nc2-c2ccccc2)ccc1=O (as salt: Na) (hydrate or solvate) [Example 32, 3-Amino-6-(1-isopropyl-6-oxo-1,6-dihydro-3-pyridyl)-5-phenyl-2-pyrazinecarbonitrile]
18 | 225.8 °C | CC(C)n1cc(-c2nc(C(N)=O)c(N)nc2-c2ccc(F)c(F)c2)ccc1=O (hydrate or solvate) [Example 29, 3-Amino-5-(3,4-difluorophenyl)-6-(1-isopropyl-6-oxo-1,6-dihydro-3-pyridyl)-2-pyrazinecarboxamide]
19 | 248.8 °C | CC(C)n1cc(-c2nc(C(N)=O)c(N)nc2-c2cc(F)cc(F)c2)ccc1=O (hydrate or solvate) [Example 30, 3-Amino-5-(3,5-difluorophenyl)-6-(1-isopropyl-6-oxo-1,6-dihydro-3-pyridyl)-2-pyrazinecarboxamide]
20 | 292 °C | CC(C)n1cc(-c2nc(C(N)=O)c(N)nc2-c2ccc(C#N)cc2)ccc1=O (hydrate or solvate) [Example 31, 3-Amino-5-(4-cyanophenyl)-6-(1-isopropyl-6-oxo-1,6-dihydro-3-pyridyl)-2-pyrazinecarboxamide]
21 | 210.6 °C | CC(C)n1cc(-c2nc(C#N)c(N)nc2-c2ccccc2F)ccc1=O (hydrate or solvate) [Example 33, 3-Amino-5-(2-fluorophenyl)-6-(1-isopropyl-6-oxo-1,6-dihydro-3-pyridyl)-2-pyrazinecarbonitrile]
22 | 210.6 °C | CC(C)n1cc(-c2nc(C#N)c(N)nc2-c2cccc(F)c2)ccc1=O (hydrate or solvate) [Example 34, 3-Amino-5-(3-fluorophenyl)-6-(1-isopropyl-6-oxo-1,6-dihydro-3-pyridyl)-2-pyrazinecarbonitrile]
23 | 207 °C | CC(C)n1cc(-c2nc(C#N)c(N)nc2-c2ccc(F)cc2)ccc1=O (hydrate or solvate) [Example 35, 3-Amino-5-(4-fluorophenyl)-6-(1-isopropyl-6-oxo-1,6-dihydro-3-pyridyl)-2-pyrazinecarbonitrile]
24 | 222.6 °C | COc1ccccc1-c1nc(N)c(C#N)nc1-c1ccc(=O)n(C(C)C)c1 (hydrate or solvate) [Example 36, 3-Amino-6-(1-isopropyl-6-oxo-1,6-dihydro-3-pyridyl)-5-(2-methoxyphenyl)-2-pyrazinecarbonitrile]
